Experiments:
[1] = test system: human colorectal adenocarcinoma cell line DLD-1; test: WST-8 antiproliferative assay, DLD-1; type: cell-based; conditions: DLD-1, 100 µM, WST-8 assay, read-out: Growth Inhibition (GI%) DLD-1
Procedure: (§1) Compounds 7a–j, 8a–j, 9a–c, and 10a–c were evaluated for in vitro anticancer activities against five different cancer cell lines, namely, human colorectal adenocarcinoma cell lines DLD-1, human cervical cancer cell line Hela, human pancreatic cancer cell line SUIT-2, human myelogenous leukemia cell line K562, and human hepatocellular carcinoma cell line HepG2 using WST-8 assay at concentrations of 100 µM to investigate the growth inhibition percent (GI%) of each compound using daunorubicin as a reference drug. […]. […] So, as a conclusion on the SAR study of those compounds as antiproliferative agents, the oxime moiety potentiated the anticancer activity and electron donating groups on R1 and R2 played an important role on this activity. Moreover, the sulfamoyl moiety on R3 seems to play a potential role in the activity of the prepared compounds (Table 1).
(§2) All selected compounds and daunorubicin were recorded as the minimum concentration required to inhibit half cell growth (IC50) and the results are listed in Table 2.
(§3) Evaluation of anticancer activity was performed according to the standard water-soluble tetrazolium-8 (WST-8) assay at the Faculty of Engineering, Yamagata University, Yonezawa, Japan, using an MTP-310 absorbance microplate reader. The EGFR inhibitory assay was carried out at the Faculty of Engineering, Yamagata University, Yonezawa, Japan, according to the protocol enzyme linked immunosorbent assay (ELISA) kits (Douset sandwich ELISA test, recombinant mouse EGFR). The JNK-2 inhibitory assay was performed at the Faculty of Engineering, Yamagata University, Yonezawa, Japan, according to the protocol of enzyme-linked immunosorbent assay (ELISA), the assay was carried out using the JNK-2 kit (Simple Step ELISA, pT183/Y185, Abcam Company, Cambridge, CB2 0AX, UK). Apoptosis and cell cycle analysis was performed at Faculty of medicine, Yamagata University, Yamagata, Japan, using BD FACS melody. Molecular docking was performed at the Nano Medical Engineering Laboratory, RIKEN Cluster for Pioneering Researchers, RIEKN, Japan, using ICM-Pro 3.8 software (MolSoft L.L.C., San Diego, CA, USA).
(§4) According to the standard water-soluble tetrazolium-8 (WST-8) assay, the current synthesized compounds have been tested for their anticancer activities against different five cancer cell lines; DLD-1, Hela, K562, SUIT-2, and HepG2 and daunorubicin was used as reference drug by the WST-8 assay. The five cells were maintained in a suspension culture, (Dulbecco’s modified eagle medium (DMEM) for SUIT-2, Hela, and HepG2 or PRIM for K562 and DLD), supplemented with 5% FBS (Fetal Bovine Serum) containing 1% of a penicillin-streptomycin (1:1) mixture. A 100 μL aliquot of cells (10,000 cells/mL) was added to a 96 well plate and incubated for 24 h at 37 °C in a humidified incubator containing 5% CO2 in the air. After 24 h, a 10 μL aliquot of test compound (concentrations varying in the range of 10–150 µM) was added to each of the 96 wells and incubated for 24 h. Then A 10 μL WST-8 solution (mixture of WST-8 and 1-methoxy PMS) was added to each well and the incubation continued for 3 h. The visible absorbance at 450 nm and 630 nm as the reference wavelength of each well was quantified using an MTP-310 absorbance microplate reader. Daunorubicin was used as a positive control. The results of cytotoxicity were recorded as growth inhibition percentages and as IC50 values.

[2] = test system: human myelogenous leukemia cell line K562; test: WST-8 antiproliferative assay, K562; type: cell-based; conditions: Homo sapiens, K562, WST-8 assay; for inhibition at 100 µM: read-out: Growth Inhibition (GI%) K562
Procedure: as §1, §2, §3
as §4, with “After 24 h, a 10 μL aliquot of test compound (concentrations varying in the range of 10–150 µM) was added to each of the 96 wells and incubated for 24 h.” left out

[3] = test system: human cervical cancer cell line Hela; test: WST-8 antiproliferative assay, Hela; type: cell-based; conditions: WST-8 assay; for inhibition at 100 µM: read-out: Growth Inhibition (GI%) Hela; for IC50: six concentrations 1-100 µM, read-out: IC50 Hela
Procedure: as §1, §2, §3
as §4, with “After 24 h, a 10 μL aliquot of test compound (concentrations varying in the range of 10–150 µM) was added to each of the 96 wells and incubated for 24 h.” left out

[4] = test system: human pancreatic cancer cell line SUIT-2; test: WST-8 antiproliferative assay, SUIT-2; type: cell-based; conditions: SUIT-2, 100 µM, WST-8 assay, read-out: Growth Inhibition (GI%) SUIT-2
Procedure: as §1, §2, §3, §4

[5] = test system: human hepatocellular carcinoma cell line HepG2; test: WST-8 antiproliferative assay, HepG2; type: cell-based; conditions: HepG2, 100 µM, WST-8 assay, read-out: Growth Inhibition (GI%) HepG2
Procedure: as §1, §2, §3, §4

[6] = test system: human pancreatic cancer cell line SUIT-2; test: WST-8 antiproliferative assay, SUIT-2; type: cell-based; conditions: WST-8 assay, six concentrations 1-100 µM
[7] = test system: human colorectal adenocarcinoma cell line DLD-1; test: WST-8 antiproliferative assay, DLD-1; type: cell-based; conditions: WST-8 assay, six concentrations 1-100 µM

melting point [°C]	IC50 [3] [µM]	IC50 [6] [µM]	IC50 [7] [µM]	IC50 ([2]; six concentrations 1-100 µM, read-out: IC50 K562) [µM]	Structure (SMILES)	inhibition at 100 µM [1] [%]	inhibition at 100 µM [2] [%]	inhibition at 100 µM [3] [%]	inhibition at 100 µM [4] [%]	inhibition at 100 µM [5] [%]
74 to 76	–	–	–	–	COc1ccc(-c2cc(C(=O)Nc3ccc(C(C)=O)cc3)nn2-c2ccc(S(N)(=O)=O)cc2)cc1 [Compound 9b, N–(4–Acetylphenyl)–5–(4–methoxyphenyl)–1–(4–sulfamoylphenyl)–1H–pyrazole–3–carboxamide]	42.1	31	0	45	19
85 to 87	15	43	81	–	COc1cc(C(C)=O)ccc1OC(=O)c1cc(-c2ccc(Cl)cc2)n(-c2ccccc2)n1 [Compound 7d, 4–Acetyl–2–methoxyphenyl–5–(4–chlorophenyl) 1–phenyl–1H–pyrazole–3–carboxylate]	72	50	104	104	31
71 to 74	25	92	–	93	COc1cc(C(C)=O)ccc1OC(=O)c1cc(-c2ccc(Cl)cc2)n(-c2ccc(S(N)(=O)=O)cc2)n1 [Compound 7i, 4–Acetyl–2–methoxyphenyl–5–(4–chlorophenyl) 1–(4–sulfamoylphenyl)–1H–pyrazole–3–carboxylate]	46	101	101	101	63
98 to 100	–	–	–	–	COc1cc(C(C)=O)ccc1OC(=O)c1cc(-c2ccccc2)n(-c2ccccc2)n1 [Compound 7a, 4–Acetyl–2–methoxyphenyl 1,5–diphenyl–1H–pyrazole–3–carboxylate]	0	0	55	101	5
129 to 131	–	–	–	–	COc1ccc(-c2cc(C(=O)Oc3ccc(/C(C)=N/O)cc3OC)nn2-c2ccc(S(N)(=O)=O)cc2)cc1OC [Compound 8j, (E)–4–(1–(Hydroxyimino)ethyl)–2–methoxyphenyl 5–(3,4–dimethoxyphenyl)–1–(4–sulfamoylphenyl)–1H–pyrazole–3–carboxylate]	9.6	34	53	79	60
132 to 135	–	–	–	–	COc1ccc(-c2cc(C(=O)Oc3ccc(/C(C)=N/O)cc3OC)nn2-c2ccccc2)cc1 [Compound 8c, (E)–4–(1–(Hydroxyimino)ethyl)–2–methoxyphenyl 5–(4–methoxyphenyl) 1–phenyl–1H–pyrazole–3–carboxylate]	0	67	78	61	51
81 to 83	–	–	–	–	CC(=O)c1ccc(NC(=O)c2cc(-c3ccccc3)n(-c3ccc(S(N)(=O)=O)cc3)n2)cc1 [Compound 9a, N–(4–Acetylphenyl)–5–phenyl–1–(4–sulfamoylphenyl)–1H–pyrazole–3–carboxamide]	60.7	66	9	60	36
69 to 72	–	–	–	–	COc1cc(C(C)=O)ccc1OC(=O)c1cc(-c2ccccc2)n(-c2ccc(S(N)(=O)=O)cc2)n1 [Compound 7f, 4–Acetyl–2–methoxyphenyl–5–phenyl 1–(4–sulfamoylphenyl)–1H–pyrazole–3–carboxylate]	18.6	24	16	75	10
80 to 83	–	–	–	–	COc1ccc(-c2cc(C(=O)Oc3ccc(C(C)=O)cc3OC)nn2-c2ccc(S(N)(=O)=O)cc2)cc1 [Compound 7h, 4–Acetyl–2–methoxyphenyl 5–(4–methoxyphenyl) 1–(4–sulfamoylphenyl)–1H–pyrazole–3–carboxylate]	0	0	0	73	0
69 to 71	–	–	–	–	COc1ccc(-c2cc(C(=O)Oc3ccc(C(C)=O)cc3OC)nn2-c2ccccc2)cc1 [Compound 7c, 4–Acetyl–2–methoxyphenyl–5–(4–methoxyphenyl) 1–phenyl–1H–pyrazole–3–carboxylate]	0	48	52	68	0
75 to 78	–	–	–	–	COc1ccc(-c2cc(C(=O)Oc3ccc(C(C)=O)cc3OC)nn2-c2ccc(S(N)(=O)=O)cc2)cc1OC [Compound 7j, 4–Acetyl–2–methoxyphenyl–5–(3,4–dimethoxyphenyl) 1–(4–sulfamoylphenyl)–1H–pyrazole–3–carboxylate]	0.1	11	10	81	0
74 to 76	–	–	–	–	COc1ccc(-c2cc(C(=O)Oc3ccc(C(C)=O)cc3OC)nn2-c2ccccc2)cc1OC [Compound 7e, 4–Acetyl–2–methoxyphenyl–5–(3,4–dimethoxyphenyl) 1–phenyl–1H–pyrazole–3–carboxylate]	59.4	0	73	101	14
81 to 83	–	–	–	–	COc1ccc(-c2cc(C(=O)Nc3ccc(C(C)=O)cc3)nn2-c2ccc(S(N)(=O)=O)cc2)cc1OC [Compound 9c, N–(4–Acetylphenyl)–5–(3,4–dimethoxyphenyl)–1–(4–sulfamoylphenyl)–1H–pyrazole–3–carboxamide]	16.8	57	9	42	22

From PMC10537604, “Development and Assessment of 1,5–Diarylpyrazole/Oxime Hybrids Targeting EGFR and JNK–2 as Antiproliferative Agents: A Comprehensive Study through Synthesis, Molecular Docking, and Evaluation” (Molecules, 2023)
